Data taken from publication PMC10745882, “Investigation of Drug-Interaction Potential for Arthritis Dietary Supplements: Chondroitin Sulfate, Glucosamine, and Methylsulfonylmethane” (Molecules, 2023).
Where two headings read alike, the source gives them in different places.

Legend:
[1] = tested on: CYPs; conditions: drugs used for OA; ref as in Refs of Table 4, 17-36; cited from earlier work
[2] = design: method as in doi:10.4172/2155-9600.1000748, PMID 16168682, PMID 19912983; conditions: cited from earlier work
[3] = target: T1, CYP3A4(T) (Homo sapiens, UniProt P08684); assay: CYP inhibition assay in human liver microsomes (LC-MS/MS cocktail), testosterone to 6-β-OH-Testosterone; type: in vitro ADME
T1 construct: Pooled human liver microsomes were purchased from BD Gentest; tissue BD Gentest; host or cells: pooled human liver microsomes
T1 sequence (P08684 whole entry): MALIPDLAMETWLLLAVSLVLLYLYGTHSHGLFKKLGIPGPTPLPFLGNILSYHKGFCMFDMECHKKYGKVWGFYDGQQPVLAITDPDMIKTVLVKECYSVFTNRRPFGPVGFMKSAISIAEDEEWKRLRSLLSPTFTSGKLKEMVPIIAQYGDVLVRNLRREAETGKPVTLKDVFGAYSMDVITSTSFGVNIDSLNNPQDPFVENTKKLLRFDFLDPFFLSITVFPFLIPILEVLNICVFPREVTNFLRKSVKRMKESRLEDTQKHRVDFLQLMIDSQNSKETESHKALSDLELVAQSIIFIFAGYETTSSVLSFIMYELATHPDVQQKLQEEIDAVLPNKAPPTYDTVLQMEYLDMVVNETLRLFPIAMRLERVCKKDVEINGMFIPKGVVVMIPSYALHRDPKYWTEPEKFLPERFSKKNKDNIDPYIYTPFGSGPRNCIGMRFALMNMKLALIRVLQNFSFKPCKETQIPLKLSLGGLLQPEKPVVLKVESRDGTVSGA
Procedure: (§1) For the experimental method, the reference method was used. Briefly, incubation mixtures were composed of 0.5 mg/mL human liver microsomes; varying concentrations of CS in DW (0.1, 0.3, 1, 3, 10, 30, 100, and 200 µM) or MSM in DW (0.1, 0.3, 1, 3, 10, 30, 100, 300, and 1000 µM) or GCS in DMSO (0.1, 0.3, 1, 3, 10, 30, 100, 300, and 1000 µM); a substrate mixture in DMSO (40 µM phenacetin for CYP1A2; 2.5 µM coumarin for CYP2A6; 80 µM bupropion for CYP2B6; 10 µM diclofenac for CYP2C9; 80 µM [±]-mephenytoin for CYP2C19; 5 µM dextromethorphan for CYP2D6; 2.5 µM midazolam and 30 µM testosterone for CYP3A4); and an NADPH generating system (NGS; 0.1 M glucose-6-phosphate, 10 mg/mL β-NADP^+, and 1 U/mL glucose-6-phosphate dehydrogenase) in a total volume of 200 µL potassium phosphate buffer (0.1 M, pH 7.4). The reaction mixture, excluding NGS, underwent pre-incubation at 37 °C for 5 min, followed by further incubation with NGS for 30 min in a water bath. Well-established selective CYP inhibitors were employed as positive controls (40 µM ketoconazole for CYP3A4, 50 µM furafyllin for CYP1A2, 10 µM quinidine for CYP2D6, 125 µM ticlopidine for CYP2C19 and CYP2B6, 10 µM 8-methoxsalen for CYP2A6, and 10 µM sulfaphenazole for CYP2C9). Post incubation, the reaction was halted by adding 50 µL ice-cold 1% formic acid acetonitrile. After centrifugation at 13,200 rpm for 5 min, the supernatant was collected from the sample and subjected to analysis via an LC-MS/MS system. All experiments were performed in triplicate.
For the experimental method, the reference method was used. The LC-MS/MS system utilized in this study consisted of an Agilent 1260 binary pump HPLC system coupled with the Agilent 6460 Triple Quadrupole mass spectrometer (Agilent Technologies, Santa Clara, CA, USA), featuring an electrospray ionization source. Chromatographic separation was achieved using a Fortis C8 column (2.1 × 100 mm, 5.0 µm; Fortis Technologies Ltd., Neston, UK). The HPLC mobile phases comprised (A) 0.1% formic acid and (B) 0.1% formic acid in 90% acetonitrile. A gradient elution method was employed with an initial solvent B concentration of 15% and a flow rate of 0.25 mL/min. […] The total run time was 11.0 min, and the injection volume was 5 µL. Mass detection was conducted in the positive ion mode using multiple reaction monitoring (MRM). Specific MRM transitions for each analyte are detailed in Table S4.

[4] = target: T2, CYP3A4(M) (Homo sapiens, UniProt P08684); assay: CYP inhibition assay in human liver microsomes (LC-MS/MS cocktail), midazolam to 1-OH-midazolam; type: in vitro ADME
T2 construct: Pooled human liver microsomes were purchased from BD Gentest; tissue BD Gentest; host or cells: pooled human liver microsomes
T2 sequence (P08684 whole entry): as above
Procedure: For the experimental method, the reference method was used. […] The reaction mixture, excluding NGS, underwent pre-incubation at 37 °C for 5 min, followed by further incubation with NGS for 30 min in a water bath. […] Post incubation, the reaction was halted by adding 50 µL ice-cold 1% formic acid acetonitrile. After centrifugation at 13,200 rpm for 5 min, the supernatant was collected from the sample and subjected to analysis via an LC-MS/MS system. All experiments were performed in triplicate.
For the experimental method, the reference method was used. […] The HPLC mobile phases comprised (A) 0.1% formic acid and (B) 0.1% formic acid in 90% acetonitrile. […] The total run time was 11.0 min, and the injection volume was 5 µL. Mass detection was conducted in the positive ion mode using multiple reaction monitoring (MRM). Specific MRM transitions for each analyte are detailed in Table S4.

[5] = design: method as in PMID 16942821, PMID 37489348, PMID 31331587; conditions: typical doses as monotherapy; cited from earlier work
[6] = tested on: seven CYP isozymes (CYP1A2, CYP2A6, CYP2B6, CYP2C9, CYP2C19, CYP2D6, CYP3A4); assay: CYP inhibition assay in human liver microsomes, statements on all tested isozymes; type: in vitro ADME
Procedure: as §1
For the experimental method, the reference method was used. The LC-MS/MS system utilized in this study consisted of an Agilent 1260 binary pump HPLC system coupled with the Agilent 6460 Triple Quadrupole mass spectrometer (Agilent Technologies, Santa Clara, CA, USA), featuring an electrospray ionization source. Chromatographic separation was achieved using a Fortis C8 column (2.1 × 100 mm, 5.0 µm; Fortis Technologies Ltd., Neston, UK). The HPLC mobile phases comprised (A) 0.1% formic acid and (B) 0.1% formic acid in 90% acetonitrile. […]

[7] = tested on: CYPs; design: method as in PMID 33096940; conditions: in vivo mice, after the administration of MSM; cited from earlier work
[8] = tested on: CYP2C9; design: method as in PMID 34821124, PMID 29488228; conditions: previous studies; cited from earlier work
[9] = interaction case, co-administration of CS and GCS with warfarin; cited from earlier work
[10] = target: T3, CYP2D6 (Homo sapiens, UniProt P10635); design: method as in PMID 34821124, PMID 29488228; conditions: previous studies; cited from earlier work
T3 construct: Pooled human liver microsomes were purchased from BD Gentest; tissue BD Gentest; host or cells: pooled human liver microsomes
T3 sequence (P10635 whole entry): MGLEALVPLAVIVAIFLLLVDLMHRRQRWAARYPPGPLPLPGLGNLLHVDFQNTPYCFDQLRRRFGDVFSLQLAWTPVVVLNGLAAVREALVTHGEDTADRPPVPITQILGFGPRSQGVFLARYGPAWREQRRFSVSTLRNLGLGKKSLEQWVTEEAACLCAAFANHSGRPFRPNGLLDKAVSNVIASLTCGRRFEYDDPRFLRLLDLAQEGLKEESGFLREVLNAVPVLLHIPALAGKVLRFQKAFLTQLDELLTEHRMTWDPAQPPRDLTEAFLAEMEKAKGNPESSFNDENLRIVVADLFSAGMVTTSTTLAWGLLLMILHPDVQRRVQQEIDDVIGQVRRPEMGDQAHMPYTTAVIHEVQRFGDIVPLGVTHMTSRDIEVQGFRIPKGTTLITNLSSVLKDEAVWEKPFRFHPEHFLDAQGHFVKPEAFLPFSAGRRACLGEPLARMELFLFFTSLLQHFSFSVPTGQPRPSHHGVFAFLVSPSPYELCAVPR

Q: For `CC(=O)Nc1ccc(O)cc1` [Acetaminophen], which “Metabolism-Associated CYPs” value [1] is on record?
A: CYP3A4 (major), CYP2El, CYP1A2, CYP2D6

Q: With `Cc1ccc(-c2cc(C(F)(F)F)nn2-c2ccc(S(N)(=O)=O)cc2)cc1` [Celecoxib] as the compound, how does the “Metabolism-Associated CYPs” value [1] read?
A: CYP2C9 (major), CYP3A4

Q: With `O=C(O)Cc1ccccc1Nc1c(Cl)cccc1Cl` [Diclofenac] as the compound, how does the “Metabolism-Associated CYPs” value [1] read?
A: CYP2C8, CYP2C9 (major), CYP2C18, CYP2C19, CYP2B6, CYP3A4

Q: With `CC(C)Cc1ccc(C(C)C(=O)O)cc1` (centres unmarked) [Ibuprofen] as the compound, how does the “Metabolism-Associated CYPs” value [1] read?
A: CYP2C8 (major) CYP2C9 (major), CYP2C19, CYP3A4

Q: What does the source list for `CS(C)(=O)=O` [MSM, methylsulfonylmethane]?
A: maximum plasma concentrations ([2]; common daily dose 2000 mg/day): ~1100 µM; Remaining Activities (% of Control, n = 3) ([3]; test substance 0.3 μM): 95.3 ± 2.9 % of Control; Remaining Activities (% of Control, n = 3) ([3]; test substance 1 μM): 98.5 ± 4.2 % of Control; Remaining Activities (% of Control, n = 3) ([3]; test substance 3 μM): 95.1 ± 3.5 % of Control; Remaining Activities (% of Control, n = 3) ([3]; test substance 10 μM): 98.0 ± 2.4 % of Control; Remaining Activities (% of Control, n = 3) ([3]; test substance 30 μM): 95.3 ± 1.7 % of Control; Remaining Activities (% of Control, n = 3) ([3]; test substance 100 μM): 90.8 ± 3.4 % of Control; Remaining Activities (% of Control, n = 3) ([3]; test substance 300 μM): 95.9 ± 4.2 % of Control; Remaining Activities (% of Control, n = 3) ([3]; test substance 1000 μM): 95.2 ± 0.5 % of Control; Remaining Activities (% of Control, n = 3) ([4]; test substance 0.3 μM): 93.2 ± 13.2 % of Control; Remaining Activities (% of Control, n = 3) ([4]; test substance 1 μM): 97.8 ± 4.3 % of Control; Remaining Activities (% of Control, n = 3) ([4]; test substance 3 μM): 96.2 ± 4.3 % of Control; Remaining Activities (% of Control, n = 3) ([4]; test substance 10 μM): 96.8 ± 4.2 % of Control; Remaining Activities (% of Control, n = 3) ([4]; test substance 30 μM): 96.9 ± 7.2 % of Control; Remaining Activities (% of Control, n = 3) ([4]; test substance 100 μM): 96.7 ± 6.2 % of Control; Remaining Activities (% of Control, n = 3) ([4]; test substance 300 μM): 97.9 ± 4.4 % of Control; Remaining Activities (% of Control, n = 3) ([4]; test substance 1000 μM): 99.7 ± 4.1 % of Control; adverse effects in clinical trials [5]: do not exhibit significant adverse effects; inhibitory effects on CYP1A2, CYP2A6, CYP2B6, CYP2C9, CYP2C19, CYP2D6, and CYP3A4 [6]: no inhibitory effects; inhibition or induction effects on CYPs (intrahepatic gene expressions) [7]: no significant inhibition or induction effects

Q: With `Cc1cnc(NC(=O)C2=C(O)c3ccccc3S(=O)(=O)N2C)s1` [Meloxicam] as the compound, how does the “Metabolism-Associated CYPs” value [1] read?
A: CYP2C9 (major), CYP3A4

Q: With `CCOC(=O)C1(c2ccccc2)CCN(C)CC1` [Pethidine] as the compound, how does the “Metabolism-Associated CYPs” value [1] read?
A: CYP2B6 (major), CYP3A4 (major), CYP2C19

Q: Which “Metabolism-Associated CYPs” value [1] does the source give for `COc1cccc(C2(O)CCCCC2CN(C)C)c1` (centres unmarked) [Tramadol] here?
A: CYP2D6 (major), CYP3A4, CYP2B6

Q: What does the source list for Chondroitin sulfate [CS]?
A: maximum plasma concentrations ([2]; common daily dose 1200 mg/day): approximately 70 µM; inhibitory effects on CYP2C9 [8]: no inhibitory effects; Remaining Activities (% of Control, n = 3) ([4]; test substance 0.1 μM): 97.6 ± 3.8 % of Control; Remaining Activities (% of Control, n = 3) ([4]; test substance 0.3 μM): 99.1 ± 3.1 % of Control; Remaining Activities (% of Control, n = 3) ([4]; test substance 1 μM): 91.2 ± 10.6 % of Control; Remaining Activities (% of Control, n = 3) ([4]; test substance 3 μM): 87.9 ± 27.9 % of Control; Remaining Activities (% of Control, n = 3) ([4]; test substance 10 μM): 101.4 ± 4.9 % of Control; Remaining Activities (% of Control, n = 3) ([4]; test substance 30 μM): 106.6 ± 5 % of Control; Remaining Activities (% of Control, n = 3) ([4]; test substance 100 μM): 113.6 ± 8.4 % of Control; Remaining Activities (% of Control, n = 3) ([4]; test substance 200 μM): 114.6 ± 2.8 % of Control; adverse effects in clinical trials [5]: do not exhibit significant adverse effects; INR on co-administration with warfarin [9]: elevated INR; inhibitory effects on CYP2D6 [10]: no inhibitory effects; inhibitory effects on CYP1A2, CYP2A6, CYP2B6, CYP2C9, CYP2C19, CYP2D6, and CYP3A4 [6]: no inhibitory effects
